Assay results published in US9751890B2, “Heteroaryl derivatives as CFTR modulators” (Vertex Pharmaceuticals Incorporated, priority 2008, dated 2017).

Biological target: T1, ΔF508-CFTR (Homo sapiens, UniProt P13569, DEL508-508)
T1 construct: expressed in transfected cells
Assay: Membrane potential optical assay for ΔF508-CFTR correction (single-addition HTS format)
Assay type: cell-based
Settings: NIH3T3 mouse fibroblasts stably expressing ΔF508-CFTR; 16-24 hrs with compound; activation with 10 μM forskolin and 20 μM genistein; read-out: BinnedMaxEfficacy (PercentActivity)
Text: Membrane potential optical methods for assaying ΔF508-CFTR modulation properties of compounds.
The assay utilizes fluorescent voltage sensing dyes to measure changes in membrane potential using a fluorescent plate reader (e.g., FLIPR III, Molecular Devices, Inc.) as a readout for increase in functional ΔF508-CFTR in NIH 3T3 cells. The driving force for the response is the creation of a chloride ion gradient in conjunction with channel activation by a single liquid addition step after the cells have previously been treated with compounds and subsequently loaded with a voltage sensing dye.
To identify small molecules that correct the trafficking defect associated with ΔF508-CFTR; a single-addition HTS assay format was developed. Assay Plates containing cells are incubated for ˜2-4 hours in tissue culture incubator at 37° C., 5% CO2, 90% humidity. Cells are then ready for compound exposure after adhering to the bottom of the assay plates.
The cells were incubated in serum-free medium for 16-24 hrs in tissue culture incubator at 37° C., 5% CO2, 90% humidity in the presence or absence (negative control) of test compound. The cells were subsequently rinsed 3× with Krebs Ringers solution and loaded with a voltage sensing redistribution dye. To activate ΔF508-CFTR, 10 μM forskolin and the CFTR potentiator, genistein (20 μM), were added along with Cl^−-free medium to each well. The addition of Cl^−-free medium promoted Cl^− efflux in response to ΔF508-CFTR activation and the resulting membrane depolarization was optically monitored using voltage sensor dyes.
Bath Solution #1: (in mM) NaCl 160, KCl 4.5, CaCl2 2, MgCl2 1, HEPES 10, pH 7.4 with NaOH.
Chloride-free bath solution: Chloride salts in Bath Solution #1 are substituted with gluconate salts.
NIH3T3 mouse fibroblasts stably expressing ΔF508-CFTR are used for optical measurements of membrane potential. The cells are maintained at 37° C. in 5% CO2 and 90% humidity in Dulbecco's modified Eagle's medium supplemented with 2 mM glutamine, 10% fetal bovine serum, 1×NEAA, β-ME, 1× pen/strep, and 25 mM HEPES in 175 cm^2 culture flasks. For all optical assays, the cells were seeded at ˜20,000/well in 384-well matrigel-coated plates and cultured for 2 hrs at 37° C. before culturing at 27° C. for 24 hrs. for the potentiator assay. For the correction assays, the cells are cultured at 27° C. or 37° C. with and without compounds for 16-24 hours.

T1 sequence (P13569 with tags, fused parts or gaps DEL508-508): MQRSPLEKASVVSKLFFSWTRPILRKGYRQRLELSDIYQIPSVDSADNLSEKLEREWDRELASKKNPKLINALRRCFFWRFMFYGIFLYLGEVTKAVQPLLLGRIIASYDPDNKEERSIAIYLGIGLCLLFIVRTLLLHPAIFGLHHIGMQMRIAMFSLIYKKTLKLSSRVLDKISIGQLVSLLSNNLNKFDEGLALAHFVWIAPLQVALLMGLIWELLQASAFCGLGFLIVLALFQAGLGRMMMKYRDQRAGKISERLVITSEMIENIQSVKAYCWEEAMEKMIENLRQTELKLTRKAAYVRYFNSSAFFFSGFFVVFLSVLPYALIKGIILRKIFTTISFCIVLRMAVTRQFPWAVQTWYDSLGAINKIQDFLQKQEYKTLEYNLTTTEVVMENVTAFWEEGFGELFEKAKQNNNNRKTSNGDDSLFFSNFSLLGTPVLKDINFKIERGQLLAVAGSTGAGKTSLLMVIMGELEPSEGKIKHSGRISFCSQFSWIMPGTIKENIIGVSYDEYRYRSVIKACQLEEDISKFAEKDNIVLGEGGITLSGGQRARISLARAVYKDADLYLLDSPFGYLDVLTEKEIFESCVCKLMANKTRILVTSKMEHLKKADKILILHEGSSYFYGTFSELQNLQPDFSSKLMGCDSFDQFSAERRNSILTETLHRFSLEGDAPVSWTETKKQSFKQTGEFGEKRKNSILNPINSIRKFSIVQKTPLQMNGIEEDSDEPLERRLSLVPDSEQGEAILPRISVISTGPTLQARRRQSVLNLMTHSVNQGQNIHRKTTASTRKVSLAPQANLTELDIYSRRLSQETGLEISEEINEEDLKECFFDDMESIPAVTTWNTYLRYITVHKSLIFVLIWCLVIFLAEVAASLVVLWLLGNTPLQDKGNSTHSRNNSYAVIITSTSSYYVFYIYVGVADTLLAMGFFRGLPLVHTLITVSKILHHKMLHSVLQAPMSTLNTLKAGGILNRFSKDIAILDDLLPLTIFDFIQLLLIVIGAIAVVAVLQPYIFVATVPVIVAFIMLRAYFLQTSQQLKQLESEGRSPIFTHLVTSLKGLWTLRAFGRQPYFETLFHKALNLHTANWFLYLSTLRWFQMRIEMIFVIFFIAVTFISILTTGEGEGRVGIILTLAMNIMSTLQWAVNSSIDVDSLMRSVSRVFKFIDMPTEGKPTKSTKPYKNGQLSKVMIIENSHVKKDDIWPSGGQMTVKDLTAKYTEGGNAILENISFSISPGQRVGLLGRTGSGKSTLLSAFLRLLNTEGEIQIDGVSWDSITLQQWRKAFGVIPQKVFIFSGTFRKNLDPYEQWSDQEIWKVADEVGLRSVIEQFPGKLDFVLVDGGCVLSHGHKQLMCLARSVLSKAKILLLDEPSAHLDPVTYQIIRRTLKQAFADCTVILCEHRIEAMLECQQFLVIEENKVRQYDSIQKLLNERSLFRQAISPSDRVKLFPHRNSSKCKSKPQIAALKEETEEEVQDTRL

| Emax | SMILES |
| --- | --- |
| 25 to 100% | Cc1ncc(NC(=O)C2(c3ccc4c(c3)OCO4)CC2)cc1-c1cccc(C(=O)O)c1 [Compound 38, 3-(5-(1-(benzo[d][1,3]dioxol-5-yl)cyclopropanecarboxamido)-2-methylpyridin-3-yl)benzoic acid] |
| > 100% | O=C(Nc1ccnc(Cc2ccccc2)c1)C1(c2ccc3c(c2)OCO3)CC1 [Compound 36, 1-(benzo[d][1,3]dioxol-5-yl)-N-(2-benzylpyridin-4-yl)cyclopropanecarboxamide] |
| > 100% | COc1cc(NC(=O)C2(c3ccc4c(c3)OCO4)CC2)nc(OC)n1 [Compound 22, 1-(benzo[d][1,3]dioxol-5-yl)-N-(2,6-dimethoxypyrimidin-4-yl)cyclopropanecarboxamide] |
| 25 to 100% | Cc1ncc(NC(=O)C2(c3ccc4c(c3)OCO4)CC2)cc1-c1ccc(CO)cc1 [Compound 29] |
| 25 to 100% | COc1ccc(C2(C(=O)Nc3cnccn3)CC2)cc1 [Compound 21] |
| > 100% | COc1ccccc1Cc1cncc(NC(=O)C2(c3ccc4c(c3)OCO4)CC2)n1 [Compound 33] |
| > 100% | O=C(Nc1cnc(Cc2ccccc2)cn1)C1(c2ccc3c(c2)OCO3)CC1 [Compound 12] |
| > 100% | Cc1ncc(NC(=O)C2(c3ccc4c(c3)OCO4)CC2)cc1-c1ccccc1 [Compound 42, 1-(benzo[d][1,3]dioxol-5-yl)-N-(6-methyl-5-phenylpyridin-3-yl)cyclopropanecarboxamide] |
